Results: patent US20060073121A1, “Spray formulation for pungency enhancement in Capsicum” (priority 2004, published 2006)

Tested on: Capsicum frutescens Mill
Test: Spray of abiotic elicitors to flowers of field-grown plants; HPLC of phenyl propanoid intermediates and capsaicinoids in harvested fruits
Type: in vivo
Text: The seedlings of Capsicum frutescens Mill were raised in soil bed. The seeds of C. frutescens were collected from wild from BR Hills, […]. The 2 months old seedling plants were transplanted to the soil and grown under controlled conditions to avoid cross-pollination after the onset of flowering. The plants were established well 2 months after transplantation and started to flower by 90 days with proper agronomic practices with regard to irrigation, fertilizer application, weeding and care from major pests and diseases. The abiotic elicitor (Methyl Jasmonate) was purchased from Duchefa Pvt.LTD. Methyl Jasmonate stock solution was prepared and later used at different concentrations (1 mM, 2.5 mM and 5 mM) for spraying to the whole plant containing flowers, completely opened flowers, and braches containing flowers. The flowers of C. frutescens were sprayed with water, which was taken as control. […] The extracted samples were centrifuged at 4000 rpm for 10 minutes. The samples were subjected to High Performance Liquid Chromatography for quantification of phenyl proponoid intermediates and major Capsaicinoids. […] The detection was at 236 nm and flow rate was maintained at 1 ml/min. […] The reagent used was of HPLC grade. The intermediates of phenyl proponoid pathway (Phenylalanine, Cinnamic acid, Coumaric acid, Caffeic acid, Ferulic acid and Vanillylamine) and two major Capsaicinoids (Capsaicin and Dihydrocapsaicin) were purchased from Sigma Co. […] Standard deviation of samples was calculated according to Tukey's method. The seedlings of Capsicum frutescens Mill were raised in soil bed. The seeds of C. frutescens were collected from BR. Hills, […]. The 2 months old seedling plants were transplanted to the soil and grown under controlled conditions to avoid cross-pollination after the onset of flowering. The plants were established well two months after transplantation and started to flower by 90 days with proper agronomic practices with regard to irrigation, fertilizer application, weeding and care from major pests and diseases. […] USA. […] The flowers of C. frutescens were sprayed with water, which was taken as control. […] The extracted samples were centrifuged at 4000 rpm for 10 minutes. The samples were subjected to High Performance Liquid Chromatography for quantification of phenyl proponoid intermediates and major Capsaicinoids. […] The detection was at 236nm and flow rate was maintained at 1 ml/min. […] The reagent used was of HPLC grade. The intermediates of phenyl propanoid pathway (Phenylalanine, Cinnamic acid, Coumaric acid, Caffeic acid, Ferulic acid and Vanillylamine) and two major Capsaicinoids (Capsaicin and Dihydrocapsaicin) were purchased from Sigma Co. […] Standard deviation of samples was calculated according to Tukey's method.

[1] = fruits 25 days after anthesis, 1 mM sprayed
[2] = fruits 25 days after anthesis, 2.5 mM sprayed
[3] = fruits 25 days after anthesis, 5 mM sprayed
[4] = fruits 30 days after anthesis, 1 mM sprayed
[5] = fruits 30 days after anthesis, 2.5 mM sprayed
[6] = fruits 30 days after anthesis, 5 mM sprayed
[7] = fruits 35 days after anthesis, 1 mM sprayed
[8] = fruits 35 days after anthesis, 2.5 mM sprayed
[9] = fruits 35 days after anthesis, 5 mM sprayed
[10] = fruits 40 days after anthesis, 1 mM sprayed
[11] = fruits 40 days after anthesis, 2.5 mM sprayed
[12] = fruits 40 days after anthesis, 5 mM sprayed

CC/C=C\CC1C(=O)CCC1CC(=O)OC (centres unmarked) [Methyl Jasmonate]
Caffeic Acid level [1]: 3 ± 0.9 µM
Capsaicin level [1]: 17 ± 1.8 µM
Cinnamic Acid level [1]: 10 ± 1.0 µM
Coumaric Acid level [1]: 44 ± 3.2 µM
Dihydrocapsaicin level [1]: 5 ± 0.8 µM
Ferulic Acid level [1]: 33 ± 1.9 µM
Phenylalanine level [1]: 388 ± 8.2 µM
Vanillylamine level [1]: 49 ± 3.4 µM
Caffeic Acid level [2]: 3 ± 0.8 µM
Capsaicin level [2]: 18 ± 1.2 µM
Cinnamic Acid level [2]: 11 ± 0.8 µM
Coumaric Acid level [2]: 45 ± 3.8 µM
Dihydrocapsaicin level [2]: 6 ± 0.5 µM
Ferulic Acid level [2]: 49 ± 2.5 µM
Phenylalanine level [2]: 424 ± 9.2 µM
Vanillylamine level [2]: 63 ± 4.5 µM
Caffeic Acid level [3]: 3 ± 0.6 µM
Capsaicin level [3]: 16 ± 1.4 µM
Cinnamic Acid level [3]: 9 ± 0.8 µM
Coumaric Acid level [3]: 42 ± 3.9 µM
Dihydrocapsaicin level [3]: 7 ± 0.8 µM
Ferulic Acid level [3]: 48 ± 3.4 µM
Phenylalanine level [3]: 391 ± 10.0 µM
Vanillylamine level [3]: 42 ± 2.9 µM
Caffeic Acid level [4]: 4 ± 1.1 µM
Capsaicin level [4]: 41 ± 3.5 µM
Cinnamic Acid level [4]: 12 ± 0.9 µM
Coumaric Acid level [4]: 38 ± 3.4 µM
Dihydrocapsaicin level [4]: 13 ± 1.0 µM
Ferulic Acid level [4]: 68 ± 5.4 µM
Phenylalanine level [4]: 563 ± 12.2 µM
Vanillylamine level [4]: 61 ± 5.4 µM
Caffeic Acid level [5]: 12 ± 1.2 µM
Capsaicin level [5]: 48 ± 3.6 µM
Cinnamic Acid level [5]: 35 ± 2.1 µM
Coumaric Acid level [5]: 47 ± 4.2 µM
Dihydrocapsaicin level [5]: 14 ± 0.9 µM
Ferulic Acid level [5]: 80 ± 4.5 µM
Phenylalanine level [5]: 649 ± 8.7 µM
Vanillylamine level [5]: 96 ± 6.9 µM
Caffeic Acid level [6]: 10 ± 0.9 µM
Capsaicin level [6]: 48 ± 6.8 µM
Cinnamic Acid level [6]: 27 ± 1.8 µM
Coumaric Acid level [6]: 45 ± 3.8 µM
Dihydrocapsaicin level [6]: 13 ± 0.7 µM
Ferulic Acid level [6]: 73 ± 4.5 µM
Phenylalanine level [6]: 627 ± 7.4 µM
Vanillylamine level [6]: 58 ± 5.1 µM
Caffeic Acid level [7]: 12 ± 1.2 µM
Capsaicin level [7]: 36 ± 3.8 µM
Cinnamic Acid level [7]: 23 ± 1.5 µM
Coumaric Acid level [7]: 44 ± 4.2 µM
Dihydrocapsaicin level [7]: 15 ± 1.2 µM
Ferulic Acid level [7]: 122 ± 8 µM
Phenylalanine level [7]: 879 ± 5.9 µM
Vanillylamine level [7]: 111 ± 10.8 µM
Caffeic Acid level [8]: 37 ± 3.2 µM
Cinnamic Acid level [8]: 68 ± 4.5 µM
Coumaric Acid level [8]: 84 ± 4.1 µM
Dihydrocapsaicin level [8]: 19 ± 1.3 µM
Ferulic Acid level [8]: 150 ± 8 µM
Phenylalanine level [8]: 1052 ± 11 µM
Vanillylamine level [8]: 107 ± 10.2 µM
Caffeic Acid level [9]: 20 ± 1.2 µM
Capsaicin level [9]: 35 ± 2.9 µM
Cinnamic Acid level [9]: 36 ± 3.2 µM
Coumaric Acid level [9]: 59 ± 3.8 µM
Dihydrocapsaicin level [9]: 12 ± 1.0 µM
Ferulic Acid level [9]: 121 ± 12 µM
Phenylalanine level [9]: 921 ± 8.9 µM
Vanillylamine level [9]: 73 ± 7.1 µM
Caffeic Acid level [10]: 9 ± 0.8 µM
Capsaicin level [10]: 33 ± 2.4 µM
Cinnamic Acid level [10]: 14 ± 1.2 µM
Coumaric Acid level [10]: 39 ± 1.9 µM
Dihydrocapsaicin level [10]: 15 ± 1.2 µM
Ferulic Acid level [10]: 107 ± 11 µM
Phenylalanine level [10]: 516 ± 8.4 µM
Vanillylamine level [10]: 78 ± 6.8 µM
Caffeic Acid level [11]: 15 ± 1.2 µM
Capsaicin level [11]: 42 ± 3.2 µM
Cinnamic Acid level [11]: 23 ± 1.9 µM
Coumaric Acid level [11]: 73 ± 2.4 µM
Dihydrocapsaicin level [11]: 18 ± 1.4 µM
Ferulic Acid level [11]: 114 ± 12 µM
Phenylalanine level [11]: 584 ± 9.2 µM
Vanillylamine level [11]: 98 ± 5.8 µM
Caffeic Acid level [12]: 13 ± 1.3 µM
Capsaicin level [12]: 28 ± 3.8 µM
Cinnamic Acid level [12]: 20 ± 1.5 µM
Coumaric Acid level [12]: 44 ± 4.1 µM
Dihydrocapsaicin level [12]: 11 ± 1.3 µM
Ferulic Acid level [12]: 67 ± 4.5 µM
Phenylalanine level [12]: 547 ± 7.4 µM
Vanillylamine level [12]: 61 ± 5.1 µM

O=C([O-])c1ccccc1O.[Na+] [Salicylic Acid sodium salt, Salicylic acid sodium salt]
Caffeic Acid level [1]: 21 ± 1.0 µM
Capsaicin level [1]: 16 ± 08 µM
Cinnamic Acid level [1]: 3.4 ± 0.9 µM
Coumaric Acid level [1]: 12.0 ± 1.2 µM
Dihydrocapsaicin level [1]: 5 ± 0.7 µM
Ferulic Acid level [1]: 31 ± 1.2 µM
Phenylalanine level [1]: 378 ± 8.2 µM
Vanillylamine level [1]: 48 ± 1.4 µM
Caffeic Acid level [2]: 25 ± 1.1 µM
Capsaicin level [2]: 17 ± 1.1 µM
Cinnamic Acid level [2]: 3.9 ± 0.7 µM
Coumaric Acid level [2]: 15 ± 1.4 µM
Dihydrocapsaicin level [2]: 5.5 ± 0.6 µM
Ferulic Acid level [2]: 32 ± 1.4 µM
Phenylalanine level [2]: 389 ± 9.2 µM
Vanillylamine level [2]: 49 ± 1.8 µM
Caffeic Acid level [3]: 28 ± 1.2 µM
Capsaicin level [3]: 16 ± 1.1 µM
Cinnamic Acid level [3]: 3.5 ± 0.6 µM
Coumaric Acid level [3]: 14 ± 1.2 µM
Dihydrocapsaicin level [3]: 6 ± 0.7 µM
Ferulic Acid level [3]: 34 ± 1.9 µM
Phenylalanine level [3]: 379 ± 10.0 µM
Vanillylamine level [3]: 47 ± 2.1 µM
Caffeic Acid level [4]: 28 ± 1.0 µM
Capsaicin level [4]: 35 ± 2.4 µM
Cinnamic Acid level [4]: 4.1 ± 1.1 µM
Coumaric Acid level [4]: 12 ± 1.1 µM
Dihydrocapsaicin level [4]: 11 ± 1.1 µM
Ferulic Acid level [4]: 35 ± 4.1 µM
Phenylalanine level [4]: 514 ± 12.2 µM
Vanillylamine level [4]: 60 ± 1.9 µM
Caffeic Acid level [5]: 30 ± 1.5 µM
Capsaicin level [5]: 44 ± 1.1 µM
Cinnamic Acid level [5]: 4.9 ± 1.5 µM
Coumaric Acid level [5]: 18 ± 1.2 µM
Dihydrocapsaicin level [5]: 12 ± 0.1 µM
Ferulic Acid level [5]: 35 ± 3.9 µM
Phenylalanine level [5]: 519 ± 8.7 µM
Vanillylamine level [5]: 67 ± 2.1 µM
Caffeic Acid level [6]: 32 ± 1.1 µM
Capsaicin level [6]: 42 ± 2.8 µM
Cinnamic Acid level [6]: 4.5 ± 1.1 µM
Coumaric Acid level [6]: 15 ± 1.2 µM
Dihydrocapsaicin level [6]: 10 ± 0.6 µM
Ferulic Acid level [6]: 38 ± 3.4 µM
Phenylalanine level [6]: 528 ± 7.4 µM
Vanillylamine level [6]: 65 ± 4.2 µM
Caffeic Acid level [7]: 29 ± 1.0 µM
Capsaicin level [7]: 38 ± 2.8 µM
Cinnamic Acid level [7]: 18 ± 1.0 µM
Coumaric Acid level [7]: 24 ± 1.2 µM
Dihydrocapsaicin level [7]: 15 ± 1.0 µM
Ferulic Acid level [7]: 64 ± 5 µM
Phenylalanine level [7]: 778 ± 5.9 µM
Vanillylamine level [7]: 68 ± 1.9 µM
Caffeic Acid level [8]: 42 ± 1.1 µM
Cinnamic Acid level [8]: 25 ± 1.1 µM
Coumaric Acid level [8]: 30 ± 1.5 µM
Dihydrocapsaicin level [8]: 16 ± 1.0 µM
Ferulic Acid level [8]: 69 ± 6.8 µM
Phenylalanine level [8]: 789 ± 11 µM
Vanillylamine level [8]: 77 ± 2.8 µM
Capsaicin level (fruits 35 days after anthesis, 2.5 mM sprayed, sodium salt): 39 ± 2.8 µM
Caffeic Acid level [9]: 32 ± 1.0 µM
Capsaicin level [9]: 36 ± 2.1 µM
Cinnamic Acid level [9]: 24 ± 1.1 µM
Coumaric Acid level [9]: 21 ± 1.1 µM
Dihydrocapsaicin level [9]: 15 ± 0.9 µM
Ferulic Acid level [9]: 65 ± 4.5 µM
Phenylalanine level [9]: 891 ± 8.9 µM
Vanillylamine level [9]: 73 ± 3.6 µM
Caffeic Acid level [10]: 29 ± 1.1 µM
Capsaicin level [10]: 31 ± 2.1 µM
Cinnamic Acid level [10]: 15 ± 1.0 µM
Coumaric Acid level [10]: 21 ± 1.1 µM
Dihydrocapsaicin level [10]: 14 ± 1.0 µM
Ferulic Acid level [10]: 62 ± 5 µM
Phenylalanine level [10]: 532 ± 8.4 µM
Vanillylamine level [10]: 64 ± 5.8 µM
Caffeic Acid level [11]: 35 ± 1.0 µM
Capsaicin level [11]: 34 ± 2.8 µM
Cinnamic Acid level [11]: 23 ± 1.1 µM
Coumaric Acid level [11]: 29 ± 1.4 µM
Dihydrocapsaicin level [11]: 15 ± 1.0 µM
Ferulic Acid level [11]: 65 ± 6 µM
Phenylalanine level [11]: 549 ± 9.2 µM
Vanillylamine level [11]: 68 ± 4.8 µM
Caffeic Acid level [12]: 34 ± 1.1 µM
Capsaicin level [12]: 38 ± 3.4 µM
Cinnamic Acid level [12]: 20 ± 1.0 µM
Coumaric Acid level [12]: 24 ± 1.5 µM
Dihydrocapsaicin level [12]: 14 ± 1.1 µM
Ferulic Acid level [12]: 67 ± 6 µM
Phenylalanine level [12]: 547 ± 7.4 µM
Vanillylamine level [12]: 65 ± 6.1 µM
